In patent US20230276792A1, “SELECTIVE HERBICIDES BASED ON SUBSTITUTED ISOXAZOLIN CARBOXAMIDES AND CLOQUINTOCET-MEXYL” (Bayer Aktiengesellschaft, priority 2020, published 2023):

What was measured:
Assay type in all cases: in vivo
[1] = test system: spring barley, HORVS Montoya; assay: Tank-mix post-emergence crop damage, herbicide with and without safener cloquintocet-mexyl, greenhouse; parameters: key to Reduction [Difference]: damage without safener − damage with safener, % points (0–100% scale)
Procedure: Seeds of crops (spring wheat, TRZAS; spring barley, HORVS; maize, ZEAMA) were placed in sandy loam soil in peat pots, covered with soil and cultivated in a greenhouse under good growth conditions. Two to three weeks after sowing, the test plants were treated at the 1 to 3-leaf stage. The herbicide/safener active compound combinations according to the invention, formulated as wettable powders or emulsion concentrates, and, in parallel tests, the correspondingly formulated individual active compounds were sprayed onto the green parts of the plants in various dosages using an amount of water of 300 l/ha (converted).
The pots were returned under good growing conditions in a glasshouse and a visual assessment of herbicidal effects was made at intervals from 1 to 3 weeks after herbicide application (DAT=days after treatment). Assessment was on a percentage basis in comparison with untreated control plants (0%=no injury, 100%=complete kill).
(§1) Reduction [Difference]=herbicide damage without safener−herbicide damage with safener
(§2) Reduction [%]=(Reduction [Difference]*100)/herbicide damage without safener
(§3) a) Plant Species, Variety: HORVS Montoya, Safener (SAF): Cloquintocet-Mexyl

[2] = test system: spring barley, HORVS Montoya; assay: Safener seed treatment, post-emergence herbicide application, crop damage; parameters: key to Reduction [Difference]: % crop damage without safener minus % damage with safener; conditions: for HER effect + SAF / Reduction [%] / Reduction [Difference]: cloquintocet-mexyl 0, 5 g a.i./kg seed; for HER effect: without safener
Description: (§4) For safener seed treatment trials, sufficient seed amounts of the respective crops (spring wheat (TRZAS); spring barley (HORVS)) were weighed into screw cap glass bottles with a minimum volume trice of the seeds.
(§5) As a first step, specified safeners formulated as wettable powder (WP) or wettable granules (WG) were weighed out for the required dosages (g a.i./kg seed), corresponding to the seed amounts. The safener amounts were mixed with a coloured slurry blind formulation type, pre-diluted with milk at 3.5% fat rate (25 mgs slurry formulation plus 2 ml milk per 10 grams of seed). A tube roller was used for coating. The solutions were gradually pipetted each on the rotating seeds followed by coating for min. 3 hours until all liquid had been soaked up by the seeds. Thereafter, the coated seeds were put flat on open trays for drying over night at room temperature.
(§6) Treated seeds were then placed into pots (7 cm diameter) on the surface of sandy loam, pressed down, flat covered with additional soil and finally covered with sandy soil, also pressed down, watered, and kept under good growth conditions in a greenhouse, until the plants had reached 2-leaf-stage (BBCH 12).
(§7) At that stage, post-emergence application of the specified herbicides was done on: • a) pot sets containing plants with safener-coated seeds as described above, • b) as a reference, pot sets of plants without seed treatment.
(§8) The herbicides were formulated as wettable powder (WP). Equivalent to the spray area, compound amounts were weighed out and diluted related to the water application rate (300 l/ha) to an aqueous suspension plus additive (1 l/ha MERO). Dosage related equivalents were conventionally sprayed on trays with the potted plants.
(§9) After application, the test plants were kept under good growth conditions in a greenhouse. Assessment timings were 10 and 21 days after treatment (DAT) with the herbicide, by visual scoring of the crop damage in % (comparison of untreated with treated plants, either sprayed only with herbicide or with herbicide on plants with treated seeds).
as §1, §2, §3

[3] = test system: spring wheat, TRZAS Triso; assay: as above; conditions: for HER effect + SAF [%] / Reduction [%]: cloquintocet-mexyl 0, 5 g a.i./kg seed; for HER effect [%]: without safener
Description: as §4, §5, §6, §7, §8, §9, §1, §2
b) Plant Species, Variety: TRZAS Triso, Safener (SAF): Cloquintocet-Mexyl

[4] = 10 DAT, HER dose 1 g a.i./ha, cloquintocet-mexyl 50 g a.i./ha
[5] = 10 DAT, HER dose 8 g a.i./ha, cloquintocet-mexyl 50 g a.i./ha
[6] = 10 DAT, HER dose 32 g a.i./ha, cloquintocet-mexyl 100 g a.i./ha
[7] = 21 DAT, HER dose 2 g a.i./ha, cloquintocet-mexyl 100 g a.i./ha
[8] = 21 DAT, HER dose 1, 5 g a.i./ha
[9] = 10 DAT, HER dose 48 g a.i./ha, cloquintocet-mexyl 100 g a.i./ha
[10] = 10 DAT, HER dose 1, 5 g a.i./ha

## CC1(C(=O)NC2C=CC(C(=O)O)C2)CC(c2cc(F)cc(F)c2)=NO1 (centres unmarked) [Example 1.36]
[1]; [4]
  Reduction [%]: 38%
  Reduction [Difference]: 30
[2]; 21 DAT, HER dose 1 g a.i./ha
  HER effect + SAF: 10%
  Reduction [%]: 67%
  HER effect: 30%
[2]; 21 DAT, HER dose 4 g a.i./ha
  Reduction [%]: 78%
  Reduction [Difference]: 73
[2]; 21 DAT, HER dose 16 g a.i./ha
  HER effect + SAF: 40%
  Reduction [%]: 58%
  Reduction [Difference]: 55
[3]; 21 DAT, HER dose 1 g a.i./ha
  HER effect + SAF [%]: 0%
  HER effect [%]: 85%
[3]; 21 DAT, HER dose 4 g a.i./ha
  HER effect + SAF [%]: 60%
  Reduction [%]: 35%
  HER effect [%]: 93%
[3]; 21 DAT, HER dose 16 g a.i./ha
  HER effect + SAF [%]: 70%
  HER effect [%]: 95%

## C=CC1(C(=O)NC2COC(C(=O)OCCOC)C2)CC(c2cc(C)cc(F)c2)=NO1 (mixture of isomers) [Example 1.65]
[2]; 10 DAT, HER dose 8 g a.i./ha
  Reduction [Difference]: 80
[2]; 10 DAT, HER dose 32 g a.i./ha
  HER effect + SAF: 10%
  Reduction [%]: 88%
  Reduction [Difference]: 70
[3]; 10 DAT, HER dose 8 g a.i./ha
  HER effect + SAF [%]: 0%
  HER effect [%]: 20%

## COC(=O)C1COCC1NC(=O)C1(C)CC(c2cc(F)cc(F)c2)=NO1 (mixture of isomers) [Example 1.93]
[1]; [5]
  HER effect + SAF: 60%
  Reduction [%]: 29%
  Reduction [Difference]: 25
[1]; [6]
  HER effect + SAF: 60%
  Reduction [%]: 33%
  Reduction [Difference]: 30
[2]; 10 DAT, HER dose 32 g a.i./ha
  HER effect + SAF: 20%
  Reduction [%]: 78%
  Reduction [Difference]: 70
[3]; 21 DAT, HER dose 2 g a.i./ha
  HER effect + SAF [%]: 0%
  HER effect [%]: 85%
[3]; 21 DAT, HER dose 8 g a.i./ha
  HER effect + SAF [%]: 10%
  HER effect [%]: 93%
[3]; 21 DAT, HER dose 32 g a.i./ha
  HER effect + SAF [%]: 10%
  HER effect [%]: 95%

## COC(=O)C1CC(NC(=O)C2(OC)CC(c3cc(F)cc(F)c3)=NO2)CO1 (mixture of isomers) [Example 1.72]
[1]; [5]
  Reduction [%]: 67%
[1]; [6]
  HER effect + SAF: 20%
  Reduction [%]: 60%
[3]; 21 DAT, HER dose 32 g a.i./ha
  HER effect + SAF [%]: 10%
  HER effect [%]: 60%

## CCOC(=O)C1CC(NC(=O)C2(C)CC(c3cccc(F)c3)=NO2)CO1 (mixture of isomers) [Example 1.67]
[1]; 10 DAT, HER dose 16 g a.i./ha, cloquintocet-mexyl 100 g a.i./ha
  Reduction [%]: 83%
[2]; 10 DAT, HER dose 4 g a.i./ha
  Reduction [%]: 67%
  Reduction [Difference]: 20
[2]; 10 DAT, HER dose 16 g a.i./ha
  Reduction [%]: 67%
[3]; 10 DAT, HER dose 4 g a.i./ha
  HER effect + SAF [%]: 10%
  HER effect [%]: 50%
[3]; 10 DAT, HER dose 16 g a.i./ha
  HER effect + SAF [%]: 20%
  HER effect [%]: 70%

## COC(=O)C1C=CC(NC(=O)C2(C(F)(F)F)CC(c3cccc(F)c3)=NO2)C1 (centres unmarked) [Example 1.18]
[2]; 10 DAT, HER dose 32 g a.i./ha
  Reduction [Difference]: 80

## C=CC1(C(=O)NC2C=CC(C(=O)OC)C2)CC(c2cc(F)cc(F)c2)=NO1 (centres unmarked) [Example 1.26]
[1]; [7]
  HER effect + SAF: 10%
  Reduction [%]: 83%
  Reduction [Difference]: 50
[2]; 21 DAT, HER dose 2 g a.i./ha
  HER effect + SAF: 30%
  Reduction [%]: 68%
  Reduction [Difference]: 63
  HER effect: 93%
[2]; 21 DAT, HER dose 8 g a.i./ha
  Reduction [%]: 47%
  Reduction [Difference]: 45
  HER effect: 95%
[3]; 21 DAT, HER dose 2 g a.i./ha
  HER effect + SAF [%]: 10%
  Reduction [%]: 89%
  HER effect [%]: 90%
[3]; 21 DAT, HER dose 8 g a.i./ha
  HER effect + SAF [%]: 30%
  Reduction [%]: 68%
  HER effect [%]: 93%

## COC(=O)C1(C)CC(NC(=O)C2(C(C)(F)F)CC(c3cc(F)cc(F)c3)=NO2)CO1 (mixture of isomers) [Example 1.94]
[1]; [5]
  Reduction [Difference]: 90
[2]; 10 DAT, HER dose 8 g a.i./ha
  Reduction [Difference]: 90
[2]; 10 DAT, HER dose 32 g a.i./ha
  Reduction [%]: 89%
  Reduction [Difference]: 80
[3]; [8]
  HER effect + SAF [%]: 0%
  HER effect [%]: 20%
[3]; 21 DAT, HER dose 6 g a.i./ha
  HER effect + SAF [%]: 10%
  HER effect [%]: 85%
[3]; 21 DAT, HER dose 24 g a.i./ha
  HER effect + SAF [%]: 20%
  HER effect [%]: 85%

## CCOC(=O)C1C=CC(NC(=O)C2(C(F)(F)F)CC(c3cc(OC)cc(OC)c3)=NO2)C1 (mixture of isomers) [Example 1.12]
[1]; [9]
  HER effect + SAF: 10%
  Reduction [%]: 83%
  Reduction [Difference]: 50

## CC(C)OC(=O)C1CC(NC(=O)C2(C)CC(c3cccc(F)c3)=NO2)CO1 (mixture of isomers) [Example 1.78]
[3]; [10]
  HER effect + SAF [%]: 0%
  HER effect [%]: 20%
[3]; 10 DAT, HER dose 6 g a.i./ha
  HER effect + SAF [%]: 0%
  HER effect [%]: 70%
[3]; 10 DAT, HER dose 24 g a.i./ha
  HER effect + SAF [%]: 10%
  HER effect [%]: 70%

## CSCCOC(=O)C1C=CC(NC(=O)C2(C(F)(F)F)CC(c3cc(F)cc(F)c3)=NO2)C1 (centres unmarked) [Example 1.7]
[2]; 21 DAT, HER dose 2 g a.i./ha
  HER effect + SAF: 30%
  Reduction [Difference]: 40
[2]; 21 DAT, HER dose 32 g a.i./ha
  HER effect + SAF: 60%
  Reduction [%]: 37%
  Reduction [Difference]: 35
[3]; 10 DAT, HER dose 2 g a.i./ha
  HER effect + SAF [%]: 0%
  HER effect [%]: 50%
[3]; 10 DAT, HER dose 8 g a.i./ha
  HER effect + SAF [%]: 30%
  Reduction [%]: 68%
  HER effect [%]: 93%
[3]; 10 DAT, HER dose 32 g a.i./ha
  HER effect + SAF [%]: 50%
  Reduction [%]: 46%
  HER effect [%]: 93%

## CC(C)OC(=O)C1CC(NC(=O)C2(C(C)(F)F)CC(c3cc(F)cc(F)c3)=NO2)CO1 (mixture of isomers) [Example 1.88]
[1]; 21 DAT, HER dose 1, 5 g a.i./ha, cloquintocet-mexyl 50 g a.i./ha
  Reduction [%]: 50%
[2]; 21 DAT, HER dose 2 g a.i./ha
  Reduction [%]: 40%
[2]; 21 DAT, HER dose 8 g a.i./ha
  HER effect + SAF: 40%
  Reduction [%]: 53%
  Reduction [Difference]: 45
[3]; 21 DAT, HER dose 2 g a.i./ha
  HER effect + SAF [%]: 20%
  Reduction [%]: 71%
  HER effect [%]: 70%
[3]; 21 DAT, HER dose 8 g a.i./ha
  HER effect + SAF [%]: 20%
  HER effect [%]: 85%

## CC1(C(=O)NC2CC=C(C(=O)NS(C)(=O)=O)C2)CC(c2cc(F)cc(F)c2)=NO1 (mixture of isomers) [Example 1.61]
[3]; 10 DAT, HER dose 8 g a.i./ha
  HER effect + SAF [%]: 0%
  Reduction [%]: 100%
  HER effect [%]: 50%
[3]; 10 DAT, HER dose 32 g a.i./ha
  HER effect + SAF [%]: 0%
  Reduction [%]: 100%
  HER effect [%]: 50%

## C=CCOC(=O)C1CC(NC(=O)C2(C=C)CC(c3cc(C)cc(F)c3)=NO2)CO1 (mixture of isomers) [Example 1.85]
[2]; 10 DAT, HER dose 32 g a.i./ha
  HER effect + SAF: 10%
  Reduction [%]: 88%
  Reduction [Difference]: 70
